Laboratory results reported in PubChem BioAssay AID248 (DTP/NCI, 2004).
Values joined by “and” are separate entries in the source; they are usually repeats but may differ in a detail not shown here. Identical values can stand only once. Toxic doses and inconclusive results are not listed. Rule as the data show it: active = T/C of 150% or more; inactive = T/C below 125%.

Tested on: L1210 leukemia ip in BDF1 mice, survival T/C
Assay: NCI In Vivo Anticancer Drug Screen. Data for tumor model L1210 Leukemia (intraperitoneal) in B6D2F1 (BDF1) mice
Settings: endpoint: mean survival time, higher = longer survival
How it was run: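 Survival endpoint. Drug-treated group vs vehicle group, expressed as T divided by C. Tumor passaged by transplantation.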

[1] = dose: 100.0 mg/kg/injection, schedule: Q01DX001 (ip), vehicle: saline
[2] = dose: 100.0 mg/kg/injection, schedule: Q04DX003 (ip), vehicle: saline
[3] = dose: 200.0 mg/kg/injection, schedule: Q04DX003 (ip), vehicle: saline
[4] = dose: 400.0 mg/kg/injection, schedule: Q04DX003 (ip), vehicle: saline
[5] = dose: 200.0 mg/kg/injection, schedule: Q01DX001 (ip), vehicle: saline
[6] = dose: 400.0 mg/kg/injection, schedule: Q01DX001 (ip), vehicle: saline
[7] = dose: 80.0 mg/kg/injection, schedule: Q01DX001 (ip), vehicle: saline
[8] = dose: 30.0 mg/kg/injection, schedule: Q01DX001 (ip), vehicle: saline
[9] = dose: 100.0 mg/kg/injection, schedule: Q01DX001 (ip), vehicle: saline with Tween-80
[10] = dose: 200.0 mg/kg/injection, schedule: Q01DX001 (ip), vehicle: saline with Tween-80
[11] = dose: 400.0 mg/kg/injection, schedule: Q01DX001 (ip), vehicle: saline with Tween-80

Measured: T/C

c1ccc([P+](c2ccccc2)(c2ccccc2)C2CCC2)cc1
inactive: dose: 9.4 mg/kg/injection, schedule: Q01DX009 (ip), vehicle: saline with Tween-80 121 % of control | dose: 18.8 mg/kg/injection, schedule: Q01DX009 (ip), vehicle: saline with Tween-80 88 % of control

O=CNc1cc2c3c(c1)CCCN3CCC2
inactive: dose: 12.5 mg/kg/injection, schedule: Q01DX001 (ip), vehicle: saline 102 % of control | dose: 25.0 mg/kg/injection, schedule: Q01DX001 (ip), vehicle: saline 108 % of control | dose: 25.0 mg/kg/injection, schedule: Q01DX009 (ip), vehicle: saline 105 % of control | dose: 50.0 mg/kg/injection, schedule: Q01DX001 (ip), vehicle: saline 107 % of control | dose: 50.0 mg/kg/injection, schedule: Q01DX009 (ip), vehicle: saline 106 % of control | [1] 100 % of control

O=P(N1CCOCC1)(N1CCOCC1)N1CCOCC1
inactive: [2] 100 % of control and 112 % of control | [3] 98 % of control and 106 % of control | [4] 97 % of control and 109 % of control

Cc1cc(Cl)nc2ccc(Cc3ccc4nc(Cl)cc(C)c4c3)cc12
inactive: [1] 91 % of control | [5] 94 % of control | [6] 96 % of control

CCC(Br)C(Br)CC(Br)C(Br)CC(Br)C(Br)CCCCCCCC(=O)O (stereo not drawn)
inactive: dose: 100.0 mg/kg/injection, schedule: Q01DX009 (ip), vehicle: Klucel (hydroxypropylcellulose) (HPC) 96 % of control | dose: 100.0 mg/kg/injection, schedule: Q04DX003 (ip), vehicle: Klucel (hydroxypropylcellulose) (HPC) 98 % of control | dose: 200.0 mg/kg/injection, schedule: Q01DX009 (ip), vehicle: Klucel (hydroxypropylcellulose) (HPC) 88 % of control | dose: 200.0 mg/kg/injection, schedule: Q04DX003 (ip), vehicle: Klucel (hydroxypropylcellulose) (HPC) 89 % of control | dose: 400.0 mg/kg/injection, schedule: Q01DX009 (ip), vehicle: Klucel (hydroxypropylcellulose) (HPC) 88 % of control | dose: 400.0 mg/kg/injection, schedule: Q04DX003 (ip), vehicle: Klucel (hydroxypropylcellulose) (HPC) 92 % of control

Cc1ccc(S(=O)(=O)CC(=O)NC(N)=O)cc1
inactive: [2] 92 % of control | [3] 103 % of control | [4] 105 % of control

Nc1cccc(CC(=O)c2ccccc2)n1
inactive: dose: 5.0 mg/kg/injection, schedule: Q01DX001 (ip), vehicle: saline 97 % of control | dose: 10.0 mg/kg/injection, schedule: Q01DX001 (ip), vehicle: saline 106 % of control | dose: 20.0 mg/kg/injection, schedule: Q01DX001 (ip), vehicle: saline 100 % of control | dose: 40.0 mg/kg/injection, schedule: Q01DX001 (ip), vehicle: saline 97 % of control | [7] 100 % of control | [5] 106 % of control

CN(C)CCCOc1c2ccccc2cc2ccccc12
inactive: dose: 1.0 mg/kg/injection, schedule: Q01DX015 (ip), vehicle: carboxymethylcellulose (CMC) 92 % of control | dose: 2.0 mg/kg/injection, schedule: Q01DX015 (ip), vehicle: carboxymethylcellulose (CMC) 92 % of control | dose: 4.0 mg/kg/injection, schedule: Q01DX015 (ip), vehicle: carboxymethylcellulose (CMC) 92 % of control | dose: 8.0 mg/kg/injection, schedule: Q01DX015 (ip), vehicle: carboxymethylcellulose (CMC) 104 % of control and 90 % of control | dose: 16.0 mg/kg/injection, schedule: Q01DX015 (ip), vehicle: carboxymethylcellulose (CMC) 98 % of control

CCOP(=O)(N1CC1(C)C)N1CC1(C)C (stereo not drawn)
active: dose: 20.0 mg/kg/injection, schedule: Q01DX009 (ip), vehicle: saline 161 % of control | dose: 25.0 mg/kg/injection, schedule: Q01DX001 (ip), vehicle: other 209 % of control | dose: 30.0 mg/kg/injection, schedule: Q01DX009 (ip), vehicle: saline 209 % of control | dose: 50.0 mg/kg/injection, schedule: Q01DX001 (ip), vehicle: other 201 % of control | dose: 52.0 mg/kg/injection, schedule: Q01DX009 (ip), vehicle: Klucel (hydroxypropylcellulose) (HPC) 177 % of control | dose: 53.0 mg/kg/injection, schedule: Q01DX001 (ip), vehicle: saline 152 % of control | dose: 80.0 mg/kg/injection, schedule: Q01DX001 (ip), vehicle: other 151 % of control | [7] 152 % of control | dose: 120.0 mg/kg/injection, schedule: Q01DX001 (ip), vehicle: other 162 % of control | dose: 120.0 mg/kg/injection, schedule: Q01DX001 (ip), vehicle: saline 273 % of control | dose: 177.0 mg/kg/injection, schedule: Q01DX001 (ip), vehicle: saline 174 % of control | dose: 180.0 mg/kg/injection, schedule: Q01DX001 (ip), vehicle: other 224 % of control | dose: 200.0 mg/kg/injection, schedule: Q01DX001 (ip), vehicle: other 223 % of control | dose: 400.0 mg/kg/injection, schedule: Q01DX001 (ip), vehicle: other 226 % of control
inactive: dose: 1.0 mg/kg/injection, schedule: Q01DX009 (ip), vehicle: saline 100 % of control | dose: 2.0 mg/kg/injection, schedule: Q01DX009 (ip), vehicle: saline 105 % of control | dose: 4.0 mg/kg/injection, schedule: Q01DX009 (ip), vehicle: saline 110 % of control | dose: 80.0 mg/kg/injection, schedule: Q01DX009 (ip), vehicle: saline 91 % of control

OC1CCC(O)C2CCC1S2 (stereo not drawn)
inactive: dose: 100.0 mg/kg/injection, schedule: Q01DX001 (ip), vehicle: steriod suspending solution 87 % of control | dose: 200.0 mg/kg/injection, schedule: Q01DX001 (ip), vehicle: steriod suspending solution 92 % of control | dose: 400.0 mg/kg/injection, schedule: Q01DX001 (ip), vehicle: steriod suspending solution 103 % of control

COc1cccc(/C=N/NC(=O)C[n+]2ccccc2)c1OC
inactive: dose: 25.0 mg/kg/injection, schedule: Q01DX009 (ip), vehicle: saline with Tween-80 98 % of control | dose: 50.0 mg/kg/injection, schedule: Q01DX009 (ip), vehicle: saline with Tween-80 106 % of control | dose: 100.0 mg/kg/injection, schedule: Q04DX003 (ip), vehicle: saline with Tween-80 113 % of control

OCP(CO)CO.[Cl][Hg][Cl]
inactive: [8] 119 % of control

C(=N\N1CCN(/N=C/c2ccc(-c3ccccc3)cc2)CC1)/c1ccc(-c2ccccc2)cc1
inactive: [1] 94 % of control | [5] 97 % of control | [6] 94 % of control

COc1ccc(Cl)cc1NC(=O)Oc1ccccc1C(C)C
inactive: [9] 96 % of control | dose: 100.0 mg/kg/injection, schedule: Q01DX009 (ip), vehicle: saline with Tween-80 96 % of control | dose: 100.0 mg/kg/injection, schedule: Q04DX002 (ip), vehicle: saline with Tween-80 95 % of control and 106 % of control | [10] 102 % of control | dose: 200.0 mg/kg/injection, schedule: Q01DX009 (ip), vehicle: saline with Tween-80 98 % of control | dose: 200.0 mg/kg/injection, schedule: Q04DX002 (ip), vehicle: saline with Tween-80 92 % of control and 109 % of control | [11] 87 % of control | dose: 400.0 mg/kg/injection, schedule: Q01DX009 (ip), vehicle: saline with Tween-80 89 % of control | dose: 400.0 mg/kg/injection, schedule: Q04DX002 (ip), vehicle: saline with Tween-80 95 % of control and 91 % of control

CNC(=O)Oc1ccc2ccccc2c1[N+](=O)[O-]
inactive: dose: 75.0 mg/kg/injection, schedule: Q01DX001 (ip), vehicle: other 101 % of control

CN(C)/C=N/NC(=O)c1ccncc1
inactive: dose: 100.0 mg/kg/injection, schedule: Q01DX009 (ip), vehicle: saline 94 % of control | [2] 88 % of control | dose: 200.0 mg/kg/injection, schedule: Q01DX009 (ip), vehicle: saline 97 % of control | [3] 100 % of control | dose: 400.0 mg/kg/injection, schedule: Q01DX009 (ip), vehicle: saline 108 % of control | [4] 96 % of control

CC(C)=NC(=O)NO.[Cl][Ni][Cl]
inactive: dose: 15.0 mg/kg/injection, schedule: Q01DX001 (ip), vehicle: saline 102 % of control | [8] 110 % of control | dose: 60.0 mg/kg/injection, schedule: Q01DX001 (ip), vehicle: saline 111 % of control | dose: 75.0 mg/kg/injection, schedule: Q01DX001 (ip), vehicle: saline 116 % of control

Cc1ccc(S(=O)(=O)N/N=C/C=C/C=N/NS(=O)(=O)c2ccc(C)cc2)cc1
inactive: dose: 100.0 mg/kg/injection, schedule: Q04DX002 (ip), vehicle: Klucel (hydroxypropylcellulose) (HPC) 97 % of control | dose: 200.0 mg/kg/injection, schedule: Q04DX002 (ip), vehicle: Klucel (hydroxypropylcellulose) (HPC) 103 % of control | dose: 400.0 mg/kg/injection, schedule: Q04DX002 (ip), vehicle: Klucel (hydroxypropylcellulose) (HPC) 94 % of control

Nc1cccc(CNc2ccc(C(=O)O)cc2)c1
inactive: [9] 113 % of control | [10] 103 % of control | [11] 98 % of control
